Results on 30 molecules are retold here after US9499493B2, “2,4-pyrimidinediamine compounds and their uses” (Rigel Pharmaceuticals, Inc., priority 2002, dated 2016).

The structures appear in SMILES notation. pIC50: −log10 of the molar value. A value given as a limit tells only on which side of the number the result lay.

Experiment [1] has as its system cultured human mast cells (CHMC). As to the kind of experiment: CHMC low cell density IgE activation: tryptase assay. Type of experiment: cell-based. The conditions noted are these: anti-IgE. The method, boiled down: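 Cells pelleted, taken up in warm MT, plated at 1000-1500/well, held 1 hr 37° C. Anti-IgE added, 30 min 37° C. Plates spun; supernatant mixed with tryptase substrate, 30 min RT.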

For experiment [2] the test system is unchanged. As to the kind of experiment: CHMC low cell density ionomycin activation: tryptase assay. Type of experiment: cell-based.

As for `Oc1cccc(Nc2nc(NC3CCN(Cc4ccccc4)CC3)ncc2F)c1` [R940264, N2-[4-(N-Benzylpiperidino)]-5-fluoro-N4-(3-hydroxyphenyl)-2,4-pyrimidinediamine], the results for the pIC50 in experiment [1] and in experiment [2] were 5.00 and less than 5.00, respectively.

For the molecule `CCOC(=O)COc1cccc(Nc2nc(Nc3cccc(C(C)(C)C)c3)ncc2F)c1` [R940266, N2-(3-tert-Butylphenyl)-N4-(3-ethoxycarbonylmethyleneoxyphenyl)-5-fluoro-4-pyrimidinediamine], the pIC50 in experiment [1] and in experiment [2] was less than 5.00 in each case.

On to `CNC(=O)COc1cccc(Nc2nc(Nc3cccc(C(C)(C)C)c3)ncc2F)c1` [R940267, N2-(3-tert-Butylphenyl)-N4-[3-(N-methylamino)carbonylmethyleneoxyphenyl]-5-fluoro-2,4-pyrimidinediamine], for which the pIC50 is 5.50 in experiment [1] and less than 5.00 in experiment [2].

For the molecule `CCOC(=O)COc1cccc(Nc2ncc(F)c(Nc3cccc(C(C)(C)C)c3)n2)c1` [R940270, N4-(3-tert-Butylphenyl)-N2-(3-ethoxycarbonylmethyleneoxyphenyl)-5-fluoro-2,4-pyrimidinediamine], the pIC50 in experiment [1] is 5.67; in experiment [2] it was 5.06.

For the molecule `CC(C)(C)c1cccc(Nc2nc(Nc3cccc(OCC(=O)O)c3)ncc2F)c1` [R940280, N4-(3-tert-Butylphenyl)-N2-[3-carboxymethyleneoxyphenyl]-5-fluoro-2,4-pyrimidinediamine], the values for the pIC50 in experiment [1] and in experiment [2] were 5.15 and less than 5.00, respectively.

Turning to `CC(C)(C)c1cccc(Nc2nc(Nc3cccc(OCCO)c3)ncc2F)c1` [R940282, N4-(3-tert-Butylphenyl)-5-fluoro-N2-[3-(2-hydroxyethyleneoxy)phenyl]-2,4-pyrimidinediamine], the pIC50 in experiment [1] is 6.40; in experiment [2] it was 5.52.

In the case of `CCOC(=O)COc1cccc(Nc2ncc(F)c(Nc3ccc4c(c3)C(=O)OC4)n2)c1` [R940285, N2-[3-Ethoxycarbonylmethyleneoxyphenyl]-N4-(3,3-dihydroisobenzofuranyl-1-one-6-yl)-5-fluoro-2,4-pyrimidinediamine], the pIC50 in experiment [1] is 5.46; in experiment [2], less than 5.00.

For `CC(C)c1cccc(Nc2nc(Nc3ccc4oc(CO)cc4c3)ncc2F)c1` [R940286, 5-Fluoro-N4-(3-isopropylphenyl)-N2-[(2-hydroxymethylene]benzofur-5-yl]-2,4-pyrimidinediamine], the pIC50 is 6.47 in experiment [1] and 5.15 in experiment [2].

As for `CC(C)(C)c1cccc(Nc2nc(Nc3ccc4oc(CO)cc4c3)ncc2F)c1` [R940287, N4-(3-tert-Butylphenyl)-5-fluoro-N2-[(2-hydroxymethylene)benzofur-5-yl]-2,4-pyrimidinediamine], the pIC50 in experiment [1] is 6.54; in experiment [2] it was 5.11.

`CNC(=O)COc1cccc(Nc2ncc(F)c(Nc3cccc(C(C)C)c3)n2)c1` [R940288, 5-Fluoro-N4-(3-isopropylphenyl)-N2-[3-(N-methylamino)carbonylmethyleneoxyphenyl]-2,4-pyrimidinediamine]: the pIC50 in experiment [1] was 6.68; in experiment [2], less than 5.00.

Consider `CC(C)c1cccc(Nc2nc(Nc3cccc(OCCO)c3)ncc2F)c1` [R940289, 5-Fluoro-N2-[3-(2-hydroxyethyleneoxy)phenyl]-N4-(3-isopropylphenyl)-2,4-pyrimidinediamine], for which the figures for the pIC50 in experiment [1] and in experiment [2] were 6.57 and less than 5.00, respectively.

Turning to `OCCOc1cccc(Nc2ncc(F)c(Nc3ccc(CO)c(CO)c3)n2)c1` [R940292, N4-[3,4-Bis(hydroxymethyl)phenyl]-5-fluoro-N2-[3-(2-hydroxyethyleneoxy)phenyl]-2,4-pyrimidinediamine], the pIC50 is 6.17 in experiment [1] and less than 5.00 in experiment [2].

Turning to `O=C(COc1cccc(Nc2ncc(F)c(Nc3ccc4c(c3)C(=O)OC4)n2)c1)NCC(O)CO` (stereo not drawn) [R940293, N4-(3,3-Dihydroisobenzofuran-1-one-6-yl)-N2-[3-(N-2,3-dihydroxypropylamino)carbonylmethyleneoxyphenyl]-5-fluoro-2,4-pyrimidinediamine], the pIC50 in experiment [1] and in experiment [2] was less than 5.00 each time.

Consider `COC(=O)c1cc2cc(Nc3ncc(F)c(Nc4ccc5c(c4)C(=O)OC5)n3)ccc2o1` [R940294, N4-(3,3-Dihydroisobenzofuranyl-1-one-6-yl)-5-fluoro-N2-(2-methoxycarbonylbenzofur-5-yl)-2,4-pyrimidinediamine], for which the pIC50 is 5.86 in experiment [1] and less than 5.00 in experiment [2].

In the case of `CC(C)(C)c1cccc(Nc2nc(Nc3cccc(OCC(=O)NCCO)c3)ncc2F)c1` [R940295, N4-(3-tert-Buthylpheny)-5-fluoro-N2-[3-(N-2-hydroxyethylamino)carbonylmethyleneoxyphenyl]-2,4-pyrimidinediamine], the pIC50 in experiment [1] was 6.90; in experiment [2], 5.05.

Turning to `CC(C)(C)c1cccc(Nc2nc(Nc3cccc(OCC(=O)NC(CO)CO)c3)ncc2F)c1` [R940296, N4-(3-tert-Butylpheny)-N2-[3-(N-1,3-dihydroxypropyl-2-amino)carbonylmethyleneoxyphenyl]-5-fluoro-2,4-pyrimidinediamine], the pIC50 in experiment [1] is 6.39; in experiment [2], less than 5.00.

For the molecule `CNC(=O)COc1cccc(Nc2ncc(F)c(Nc3cccc(C(N)=O)c3)n2)c1` [R940299, 5-Fluoro-N2-[3-(methylaminocarbonylmethyleneoxy)phenyl]-N4-(3-aminocarbonylphenyl)-2,4-pyrimidinediamine], the pIC50 in experiment [1] was 5.60; in experiment [2] it was less than 5.00.

Regarding `CNC(=O)COc1cccc(Nc2ncc(F)c(Nc3ccc(OC)c(C(=O)OC)c3)n2)c1` [R940300, 5-Fluoro-N2-[3-(methylaminocarbonylmethyleneoxy)phenyl]-N4-(3-methyloxycarbonyl-4-methoxyphenyl)-2,4-pyrimidinediamine], the results for the pIC50 in experiment [1] and in experiment [2] were 5.00 and less than 5.00, respectively.

`CNC(=O)COc1cccc(Nc2ncc(F)c(Nc3ccc(OC)c(C(=O)NC)c3)n2)c1` [R940306, 5-Fluoro-N2-[3-(methylaminocarbonylmethyleneoxy)phenyl]-N4-(3-methylaminocarbonyl-4-methoxyphenyl)-2,4-pyrimidinediamine]: the figures for the pIC50 in experiment [1] and in experiment [2] were 5.96 and less than 5.00, respectively.

In the case of `CC(C)c1cccc(Nc2nc(Nc3cccc(OCC(=O)NC[C@@H](O)CO)c3)ncc2F)c1` [R940307, (R)—N2-[3-(dihydroxypropylaminocarbonylmethyleneoxy)-phenyl]-5-fluoro-N4-(3-isopropylphenyl)-2,4-pyrimidinediamine], the pIC50 in experiment [1] is 6.54; in experiment [2], less than 5.00.

For `CNC(=O)COc1cccc(Nc2ncc(F)c(Nc3cccc(CN)c3)n2)c1` [R940309, N4-(3-Aminomethylenephenyl)-5-fluoro-N2-[3-(methylaminocarbonylmethyleneoxy)phenyl]-2,4-pyrimidinediamine], the pIC50 in experiment [1] was 5.95; in experiment [2] it was less than 5.00.

As to `CNCc1cccc(Nc2nc(Nc3cccc(OCC(=O)NC)c3)ncc2F)c1` [R940317, N4-(3-N-methylaminomethylenephenyl)-5-fluoro-N2-[3-(methylaminocarbonylmethyleneoxy)phenyl]-2,4-pyrimidinediamine], the pIC50 is 6.04 in experiment [1] and less than 5.00 in experiment [2].

Consider `CNC(=O)COc1cccc(Nc2ncc(F)c(Nc3ccc4c(c3)NC(=O)C(C)(C)O4)n2)c1` [R940323, N4-[(2,2-Dimethyl-4H-benzo[1,4]oxazin-3-one)-6-yl]-5-fluoro-N2-[3-(methylaminocarbonylmethyleneoxy)phenyl]-2,4-pyrimidinediamine], for which the pIC50 in experiment [1] is 7.32; in experiment [2], less than 5.00.

Regarding `Cn1ncc2cc(Nc3ncc(F)c(Nc4ccc5c(c4)NC(=O)C(C)(C)O5)n3)ccc21` [R940338, N4-[(2,2-Dimethyl-4H-benzo[1,4]oxazin-3-one)-6-yl]-5-fluoro-N2-(1-methylindazolin-5-yl)-2,4-pyrimidinediamine], the results for the pIC50 in experiment [1] and in experiment [2] were 7.14 and less than 5.00, respectively.

Take `O=C1Nc2cc(Nc3nc(Nc4cccc(O)c4)ncc3F)ccc2OC1(F)F` [R940349, N4-[(2,2-Difluoro-4H-benzo[1,4]oxazin-3-one)-6-yl]-5-fluoro-N2-(3-hydroxyphenyl)-2,4-pyrimidinediamine]: the values for the pIC50 in experiment [1] and in experiment [2] were 7.36 and 5.13, respectively.

For the molecule `CC1(C)Oc2ccc(Nc3nc(Nc4ccc5c(c4)NC(=O)C(F)(F)O5)ncc3F)cc2NC1=O` [R940351, N2-[(2,2-Difluoro-4H-benzo[1,4]oxazin-3-one)-6-yl]-N4-[(2,2-dimethyl-4H-benzo[1,4]oxazin-3-one)-6-yl]-5-fluoro-2,4-pyrimidinediamine], the pIC50 in experiment [1] is 6.92; in experiment [2], 5.57.

With `COC(=O)c1cc2cc(Nc3ncc(F)c(Nc4ccc5c(c4)NC(=O)C(F)(F)O5)n3)ccc2o1` [R940353, N4-[(2,2-Difluoro-4H-benzo[1,4]oxazin-3-one)-6-yl]-5-fluoro-N2-(2-methoxycarbonylbenzofur-5-yl)-2,4-pyrimidinediamine], the pIC50 is 7.04 in experiment [1] and less than 5.00 in experiment [2].

For `NC(=O)COc1ccc(Nc2ncc(F)c(Nc3ccc(OCC(N)=O)cc3)n2)cc1` [R945025, N2,N4-Bis[4-(aminocarbonylmethyleneoxy)phenyl]-5-fluoro-2,4-pyrimidinediamine], the pIC50 in experiment [1] and in experiment [2] was less than 5.00 in each case.

For `Cn1nnc(COc2ccc(Nc3ncc(F)c(Nc4ccc(OCc5nnn(C)n5)cc4)n3)cc2)n1` [R945046, N2,N4-Bis[4-(2-methyl-1,2,3,4-tetrazol-5-yl)methyleneoxyphenyl]-5-fluoro-2,4-pyrimidinediamine], the figures for the pIC50 in experiment [1] and in experiment [2] were 6.09 and less than 5.00, respectively.

For the molecule `Cn1nnc(COc2ccc(Nc3nc(Nc4ccc(OCc5nnnn5C)cc4)ncc3F)cc2)n1` [R945047, 5-Fluoro-N2,N4-[4-(1-methyl-1,2,3,4-tetrazol-5-yl)methyleneoxyphenyl], [4-(2-methyl-1,2,3,4-tetrazol-5-yl)methyleneoxyphenyl]-2,4-pyrimidinediamine], the results for the pIC50 in experiment [1] and in experiment [2] were 6.07 and less than 5.00, respectively.

A word on the pIC50: it is −log10 of the IC50, conventionally taken in molar units. A high value points to a low IC50.
